Measurements: paper PMC7352342, “Inhibition of Patched Drug Efflux Increases Vemurafenib Effectiveness against Resistant Braf^V600E Melanoma” (Cancers, 2020)
Values joined by “and” are separate entries in the source; they are usually repeats but may differ in a detail not shown here. Equal entries are not always repeated.

Legend:
WM9R cells = test: Wound-healing assay, WM9R cells; format: cell-based; conditions: 48 h after wounding, sPAH added to vemurafenib
Protocol: (§1) Once cells were confluent in 24-well plates, a wound was created using a p200 tip. Two pictures were taken at two different points of each well immediately after wounding, and 48 h after wounding. Images were taken with Leica DM IRB (5×). The width of the wound was measured using ImageJ software and reported as percentage final wound width/initial wound width.

human Ptch1 = biological target: T1, human Ptch1 (Homo sapiens, UniProt Q13635); test: Microscale thermophoresis on membranes from yeast expressing human Ptch1; format: binding; conditions: membranes from yeast expressing hPtch1; MST; mean of 3 experiments
T1 construct: made in house; host or cells: yeast (membrane preparation)
T1 sequence (Q13635 1-1447): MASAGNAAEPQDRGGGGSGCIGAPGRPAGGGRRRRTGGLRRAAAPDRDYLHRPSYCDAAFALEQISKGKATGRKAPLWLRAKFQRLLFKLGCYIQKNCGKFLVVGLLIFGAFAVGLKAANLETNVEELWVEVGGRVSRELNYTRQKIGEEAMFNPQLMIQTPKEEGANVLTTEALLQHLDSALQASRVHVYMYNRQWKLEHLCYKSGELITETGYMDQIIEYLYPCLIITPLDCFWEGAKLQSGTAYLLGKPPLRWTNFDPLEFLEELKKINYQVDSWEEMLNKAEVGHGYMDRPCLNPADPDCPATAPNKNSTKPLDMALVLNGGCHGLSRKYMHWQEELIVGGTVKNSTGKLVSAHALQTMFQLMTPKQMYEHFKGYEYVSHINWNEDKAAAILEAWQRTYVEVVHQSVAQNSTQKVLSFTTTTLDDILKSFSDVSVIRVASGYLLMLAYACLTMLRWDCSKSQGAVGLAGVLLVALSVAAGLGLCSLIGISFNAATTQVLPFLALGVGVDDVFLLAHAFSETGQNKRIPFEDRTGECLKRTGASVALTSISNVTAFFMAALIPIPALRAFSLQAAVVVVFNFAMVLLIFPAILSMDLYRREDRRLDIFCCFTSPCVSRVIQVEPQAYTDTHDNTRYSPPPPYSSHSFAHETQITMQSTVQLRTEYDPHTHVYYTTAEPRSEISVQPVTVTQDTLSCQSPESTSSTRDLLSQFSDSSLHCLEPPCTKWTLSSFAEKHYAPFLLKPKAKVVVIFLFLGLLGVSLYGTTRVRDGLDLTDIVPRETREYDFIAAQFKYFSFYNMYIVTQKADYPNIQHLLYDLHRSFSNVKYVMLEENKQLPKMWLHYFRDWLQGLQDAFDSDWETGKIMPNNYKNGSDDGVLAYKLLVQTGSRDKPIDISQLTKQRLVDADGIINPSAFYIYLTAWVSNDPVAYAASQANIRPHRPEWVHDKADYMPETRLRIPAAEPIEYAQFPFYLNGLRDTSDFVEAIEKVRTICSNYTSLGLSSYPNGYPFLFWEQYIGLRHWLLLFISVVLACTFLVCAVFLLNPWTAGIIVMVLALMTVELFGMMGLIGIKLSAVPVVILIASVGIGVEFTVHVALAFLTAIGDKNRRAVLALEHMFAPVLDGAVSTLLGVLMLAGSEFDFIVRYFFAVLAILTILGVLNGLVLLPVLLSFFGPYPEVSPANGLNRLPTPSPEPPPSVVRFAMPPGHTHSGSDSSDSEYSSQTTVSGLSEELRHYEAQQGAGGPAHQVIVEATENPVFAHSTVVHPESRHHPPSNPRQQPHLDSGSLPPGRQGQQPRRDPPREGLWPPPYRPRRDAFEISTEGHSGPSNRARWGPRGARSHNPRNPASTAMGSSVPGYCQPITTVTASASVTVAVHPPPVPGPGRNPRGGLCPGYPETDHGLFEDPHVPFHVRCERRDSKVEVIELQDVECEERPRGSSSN
Protocol: Microscale thermophoresis (MST) is a biophysical technique that measures the strength of the interaction between two molecules by detecting a variation in the fluorescence signal of a fluorescently labeled target as a result of an IR-laser induced temperature change. The range of the variation in the fluorescence signal correlates with the binding of a ligand to the fluorescent target.
Membranes from yeast expressing human Ptch1 or human Smoothened were incubated at 30 µg/mL with 20 nM of the fluorescent dye NT-647 2nd gen (NanoTemper Technologies, München, Germany) to label the His-tag present at the c-terminus of both proteins. […] The fluorescence within the capillary is excited and detected through the same objective. […] The MST response of fluorescent proteins within the temperature gradient is detected. After activation of the IR laser, a decrease in fluorescence is observed which corresponds to temperature-related intensity change (TRIC) triggered by the fast temperature change and thermophoretic movement of the fluorescent proteins out of the heated sample volume. […] For analysis, the change in MST signal is expressed as the change in the normalized fluorescence (Fnorm), which is defined as F1/F0. […] The sPAH Kd was determined for 3 independent experiments.

A375 cells = test: Wound-healing assay, A375 cells; format: cell-based, human; conditions: 48 h after wounding, sPAH added to vemurafenib
Protocol: as §1

Structure (SMILES): COc1cc(C)c(CC/C(C)=C/Cc2cc(O)ccc2O)c(C)c1C [sPAH, Panicein A hydroquinone]
- effect on vemurafenib efficacy against cell migration (WM9R cells): the same effect was observed
- Kd (human Ptch1): ~7 µM and 7.2 µM
- effect on vemurafenib efficacy against cell migration (A375 cells): increased vemurafenib efficacy
